Experimental data from patent US9000183B2, “Cyclohexane-1,2′-indene-1′,2″-imidazol compounds and their use as BACE inhibitors” (AstraZeneca AB, priority 2012, dated 2015).

Experiments:
[1] = system: sAPPβ release, SH-SY5Y cells; assay: sAPPβ release assay; format: cell-based; conditions: 17 h incubation
Protocol: Thaw cells and seed at a conc. of around 10000 cells/well in DMEM/F-12 with Glutamax, 10% FCS and 1% non-essential amino acids to a 384-well tissue culture treated plate, […] cell susp/well. The cell plates were then incubated for 7-24 h at 37° C., 5% CO2. The cell medium was removed, followed by addition of 30 μL compound diluted in DMEM/F-12 with Glutamax, 10% FCS, 1% non-essential amino acids and 1% PeSt to a final conc. of 1% DMSO. The compounds were incubated with the cells for 17 h (overnight) at 37° C., 5% CO2. Meso Scale Discovery (MSD) plates were used for the detection of sAPPβ release. MSD sAPPβ plates were blocked in 1% BSA in Tris wash buffer (40 μL/well) for 1 h on shake at r.t. and washed 1 time in Tris wash buffer (40 μL/well). 20 μL of medium was transferred to the pre-blocked and washed MSD sAPPβ microplates, and the cell plates were further used in an ATP assay to measure cytotoxicity. The MSD plates were incubated with shaking at r.t. for 2 h and the media discarded. 10 μL detection antibody was added (1 nM) per well followed by incubation with shaking at r.t. for 2 h and then discarded. 40 μL Read Buffer was added per well and the plates were read in a SECTOR Imager.

human β-Secretase [2] = target: T1, human β-Secretase (Homo sapiens (Human), UniProt P56817); assay: Diluted TR-FRET assay; format: biochemical; conditions: 50 times less enzyme, 6.5 h reaction time; read-out: IC50 in TR-FRET assay (IC50 from the diluted FRET assay)
Protocol: (§1) The cDNA for the soluble part of the human β-Secretase (AA 1-AA 460) was cloned using the ASP2-Fc10-1-IRES-GFP-neoK mammalian expression vector. The gene was fused to the Fc domain of IgG1 (affinity tag) and stably cloned into HEK 293 cells.
(§2) The enzyme (truncated form) was diluted to 6 μg/mL (stock 1.3 mg/mL) and the TruPoint BACE1 Substrate to 200 nM (stock 120 μM) in reaction buffer (NaAcetate, chaps, triton x-100, EDTA pH4.5). Enzyme and compound in dimethylsulphoxide (final DMSO concentration 5%) was mixed and pre-incubated for 10 minutes at RT. Substrate was then added and the reaction was incubated for 15 minutes at RT. The reaction was stopped with the addition of 0.35 vol Stop solution (NaAcetate, pH 9). The fluorescence of the product was measured on a Victor II plate reader with excitation wavelengths of 340-485 nm and emission wavelengths of 590-615 nm. […] The dimethylsulphoxide control, instead of test compound, defined the 100% activity level and 0% activity was defined by wells lacking enzyme (replaced with reaction buffer) or by a saturating dose of a known inhibitor, 2-amino-6-[3-(3-methoxyphenyl)phenyl]-3,6-dimethyl-5H-pyrimidin-4-one.
Compounds with a high affinity were further tested in a diluted TR-FRET assay, conditions as described above for the TR-FRET assay, but with 50 times less enzyme and a 6.5 h long reaction time at r.t. in the dark.

human β-Secretase [3] = target: T1, human β-Secretase; assay: TR-FRET assay; format: biochemical
Protocol: The β-secretase enzyme used in the TR-FRET is prepared as follows:
as §1, §2

T1 sequence (P56817 22-460): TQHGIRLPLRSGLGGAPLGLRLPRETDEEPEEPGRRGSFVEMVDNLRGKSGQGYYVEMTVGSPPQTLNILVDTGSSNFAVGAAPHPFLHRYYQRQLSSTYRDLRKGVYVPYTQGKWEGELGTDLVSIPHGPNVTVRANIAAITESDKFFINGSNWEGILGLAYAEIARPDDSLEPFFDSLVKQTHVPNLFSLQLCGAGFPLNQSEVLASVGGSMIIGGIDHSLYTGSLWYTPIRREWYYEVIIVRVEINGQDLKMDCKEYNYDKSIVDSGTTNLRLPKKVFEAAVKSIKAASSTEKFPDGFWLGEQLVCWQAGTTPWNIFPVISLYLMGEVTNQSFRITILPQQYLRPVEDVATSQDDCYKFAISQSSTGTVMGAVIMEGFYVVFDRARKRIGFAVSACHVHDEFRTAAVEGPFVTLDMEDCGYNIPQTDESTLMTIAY

Row | IC50 [1] | IC50 (human β-Secretase [2]) | IC50 (human β-Secretase [3]) | IC50 ([1]; Homo sapiens) | SMILES
1 | 0.0074 µM | 0.013 µM |  |  | CO[C@H]1CC[C@]2(CC1)Cc1cc(F)c(-c3cc(F)cc(C#N)c3)cc1[C@@]21N=C(C)C(N)=N1 (single isomer, unassigned; isomer 1) [9 Isomer 1]
2 |  |  | 0.023 µM | 0.0048 µM | CO[C@H]1CC[C@]2(CC1)Cc1cc(F)c(-c3cc(F)cc(C#N)c3)cc1C21N=C(C)C(N)=N1 (some centres unmarked) [Example 8, 3-[(1r,4r)-4″-Amino-5′-fluoro-4-methoxy-5″-methyl-3′H-dispiro[cyclohexane-1,2′-indene-1′,2″-imidazol]-6′-yl]-5-fluorobenzonitrile]
3 |  | 0.0024 µM |  |  | CO[C@H]1CC[C@]2(CC1)Cc1cc(F)c(-c3cc(Cl)cc(C#N)c3)cc1[C@@]21N=C(C)C(N)=N1 (single isomer, unassigned; isomer 1) [6 Isomer 1]
4 |  |  | > 5 µM |  | CO[C@H]1CC[C@]2(CC1)Cc1cc(F)c(-c3cc(F)cc(C#N)c3)cc1[C@]21N=C(C)C(N)=N1 (single isomer, unassigned; isomer 2) [9 Isomer 2]
5 |  |  | > 4.3 µM |  | CO[C@H]1CC[C@]2(CC1)Cc1cc(F)c(-c3cc(Cl)cc(C#N)c3)cc1[C@]21N=C(C)C(N)=N1 (single isomer, unassigned; isomer 2) [6 Isomer 2]

Further lines, the compound ahead of its results:

Row | SMILES | IC50 [1] | IC50 (human β-Secretase [2]) | IC50 (human β-Secretase [3]) | IC50 ([1]; Homo sapiens)
6 | CO[C@H]1CC[C@]2(CC1)Cc1cc(F)c(-c3cc(Cl)cc(C#N)c3)cc1C21N=C(C)C(N)=N1 (some centres unmarked) [Example 5, 3-[(1s,4s)-4″-Amino-5′-fluoro-4-methoxy-5″-methyl-3′H-dispiro[cyclohexane-1,2′-indene-1′,2″-imidazol]-6′-yl]-5-chlorobenzonitrile] |  |  | 0.023 µM | 
7 | CO[C@H]1CC[C@]2(CC1)Cc1cc(C)c(-c3cc(Cl)cc(C#N)c3)cc1C21N=C(C)C(N)=N1 (some centres unmarked) [Example 3, 3-[(1r,4r)-4″-Amino-4-methoxy-5′,5″-dimethyl-3′H-dispiro[cyclohexane-1,2′-indene-1′,2″-imidazol]-6′-yl]-5-chlorobenzonitrile] |  | 0.024 µM |  | 0.012 µM
8 | CO[C@H]1CC[C@]2(CC1)Cc1cc(F)c(OCCCF)cc1C21N=C(C)C(N)=N1 (some centres unmarked) [Example 10, 5′-Fluoro-6′-(3-fluoropropoxy)-4-methoxy-5″-methyl-3′H-dispiro[cyclohexane-1,2′-indene-1′,2″-imidazol]-4″-amine] |  |  | 0.039 µM | 
9 | CO[C@H]1CC[C@]2(CC1)Cc1cc(F)c(-c3cncc(Cl)c3)cc1C21N=C(C)C(N)=N1 (some centres unmarked) [Example 7, (1r,4r)-6′-(5-Chloropyridin-3-yl)-5′-fluoro-4-methoxy-5″-methyl-3′H-dispiro[cyclohexane-1,2′-indene-1′,2″-imidazol]-4″-amine] |  |  | 0.036 µM | 0.003 µM
10 | CO[C@H]1CC[C@]2(CC1)Cc1cc(C)c(Br)cc1C21N=C(C)C(N)=N1 (some centres unmarked) [Example 1, (1r,4r)-6′-Bromo-4-methoxy-5′,5″-dimethyl-3′H-dispiro[cyclohexane-1,2′-indene-1′,2″-imidazol]-4″-amine] |  |  | 1.66 µM | 
11 | COC1CCC2(CC1)Cc1cc(F)c(Br)cc1C21N=C(C)C(N)=N1 (centres unmarked) [Example 4, 6′-Bromo-5′-fluoro-4-methoxy-5″-methyl-3′H-dispiro[cyclohexane-1,2′-indene-1′,2″-imidazol]-4″-amine] |  |  | 0.516 µM | 
12 | CC#Cc1cncc(-c2cc3c(cc2C)C[C@]2(CC[C@@H](OC)CC2)C32N=C(C)C(N)=N2)c1 (some centres unmarked) [Example 2, (1r,4r)-4-Methoxy-5′,5″-dimethyl-6′-[5-(prop-1-yn-1-yl)pyridin-3-yl]-3′H-dispiro[cyclohexane-1,2′-indene-1′,2″-imidazol]-4″-amine] |  | 0.015 µM |  | 0.017 µM
